Results reported in patent publication US11976280B2, “SMAC/Diablo inhibitors useful for treating cancer” (THE NATIONAL INSTITUTE FOR BIOTECHNOLOGY IN THE NEGEV LTD., priority 2017, dated 2024).
d = 2'-deoxy (DNA); r = 2'-OH (RNA)

Key:
HeLa, A549 or H358 cells = assay: Cell death analysis, PI / FITC-Annexin V staining and flow cytometry; format: cell-based, human; settings: cells silenced for SMAC/Diablo; no significant cell death
Method: Cells death was analyzed by propidium iodide (PI) staining and flow cytometer (Beckton-Dickinson, San Jose, CA) and BD CellQuest Pro software, or using acridine orange ethidium bromide staining (Abu-Hamad, S., et al., 2009. J Cell Sci, 122(Pt 11): p. 1906-1916).
Moreover, apoptosis was induced by over-expressing SMAC/Diablo or SMAC/Diablo-GFP in HeLa, A549 and H358 cells in a concentration- and time-dependent manner, again as expected (FIG. 3D-3F).

WI38 and HaCat cells = assay: SRB cell growth assay, immortalized non-cancerous cell lines; format: cell-based, human
Method: The siRNAs were synthesized by Genepharma (Suzhou, China). Cells were seeded (150,000 cells/well) on 6-well culture dishes to 40-60% confluence and transfected with 10-100 nM si-NT or si-hSMAC/Diablo using the JetPRIME transfection reagent (Illkirch, France), according to the manufacturers' instructions.
Twenty-four hours post-transfection with si-NT or si-hSMAC, cells (10,000/well) were counted and seeded in 96-well plates. After additional 48, 72 or 96 hours, the cells were washed with PBS, fixed with 10% trichloroacetic acid, and stained with SRB. SRB was extracted from the cells using 100 mM Tris base and absorbance at 510 nm was determined using an Infinite M1000 plate reader (Tecan, Männedorf, Switzerland).
The effect of the SMAC/Diablo silencing on cell growth was examined using the sulforhodamine B (SRB) assay. […] Three other siRNAs designed to target hSMAC (B to D as described hereinabove) were also found to inhibit SMAC/Diablo expression and cell growth to various degrees (FIG. 2I, 2J).

A549 cells = assay: Cell cycle analysis by flow cytometry; format: cell-based, human; settings: relative to etoposide-treated cells; 50 nM
Method: For cell cycle analysis, cells were harvested, washed with PBS and fixed with ice-cold 70% ethanol overnight at −20° C. The cells were then washed with PBS, incubated with RNase A (100 μg/ml) in PBS for […] at 37° C. Then the cells were incubated with PI (1 μg/ml) before analysis on a flow cytometer (iCyt Eclipse EC800, UK). Single cells were gated and a minimum of 10,000 cells acquired and analyzed by FACS Eclipse analyzer.

A549 cells xenograft = assay: Sub-cutaneous A549 lung cancer xenograft in nude mice, intratumoral siRNA; format: in vivo; settings: for decrease in tumor size at the end point: every 3 days; for decrease in tumor weight: 39 days post-cell inoculation
Method: Five-week-old male athymic Swiss nude mice (weight ˜19-22 g) were obtained from Envigo and allowed a week of acclimatization to their new surroundings. Lung cancer cells A549 (3×10^6), or breast cancer cells MDA-MB231 (3×10^6) were injected subcutaneous (s.c.) into the hind leg flanks of the mice. Approval for the experimental protocol was obtained from the Institutional Animal Care and Use Committee of the Soroka University Medical Center. Eleven days after inoculation, the developing tumors were measured in two dimensions with a digital caliper and tumor volume was calculated as follows: volume=X^2×Y/2, where X and Y are the short and long tumor dimensions, respectively. Mice with xenografts reaching a volume of 65-100 mm^3 were randomized to receive either non-targeting (NT) siRNA or siRNA targeted to human hSMAC (si-hSMAC); 5 animals in each group. Tumors and section thereof that received NT siRNA are designated si-NT-TTs (siRNA non-targeting treated tumors) and tumors and section thereof that received hSMAC siRNA are designated si-hSMAC-TTs (siRNA hSMAC treated tumors). Treatment substances were injected into the established s.c. tumors using the jetPEI delivery reagent (10 μg siRNA/20 μl jetPEI). The tumors were injected (at a volume equal to 10 to 20% of the tumor volume) with si-NT or the appropriate si-hSMAC every three days. Beginning on the day of inoculation, mouse weight and tumor volume were monitored twice a week using a digital caliper. At the end of the experiment, i.e. when tumor volume reached approximately 1300 mm^3, the mice were sacrificed using CO2 gas, the tumors were excised and ex vivo weight was determined. Half of each tumor was fixed in 4% buffered formaldehyde, paraffin-embedded and processed for histological examination, while the second half was frozen in liquid nitrogen and stored in −80° C. for immunoblot analysis.
Tissue microarrays (MC5003, LC807) containing cancer and normal tissues purchased from US Biomax (US Biomax, Inc. USA) and formalin-fixed and paraffin-embedded tumor sections were immunohistochemistry (IHC) stained. Sections were deparaffinized using xylene and a graded ethanol series. Endogenous peroxidase activity was blocked by incubating the sections in 3% H2O2 for 10 minutes. Antigen retrieval was performed in 0.01M citrate buffer (pH 6.0) in 95° C.-98° C. for 20 minutes. After washing sections with PBS containing 0.1% Triton-X100 (pH 7.4), non-specific antibody binding was reduced by incubating the sections in 10% normal goat serum for 2 hr. After decanting excess serum, sections were incubated overnight at 4° C. with primary antibodies (sources and dilutions are detailed in Supplementary Table 1). Sections were washed with PBST. For IHC, endogenous peroxidase activity was blocked by incubating the sections in 3% H2O2 for […]. After washing thoroughly with PBST, the sections were incubated for 2 h with anti-mouse or anti rabbit (1:250) secondary antibodies conjugated to HRP, as appropriate. Sections were washed five times in PBST and the peroxidase reaction was subsequently visualized by incubating with 3,3-diaminobenzidine (DAB) (ImmPact-DAB, Burlingame, CA). After rinsing in water, the sections were counterstained with hematoxylin, and mounted with Vectashield mounting medium (Vector Laboratories, Burigame, CA). Finally, the sections were observed under a microscope (Leica DM2500) and images were collected at 20× magnification with the same light intensity and exposure time.
The effect of si-hSMAC-A was tested on a sub-cutaneous (s.c) tumor xenograft of A549 cells established in nude mice (FIG. 4). Following tumor formation (75-90 mm^3), the mice were divided into three matched groups, and injected every 3 days with either si-NT (group 1) or si-hSMAC-A at 350 nM (group 2) or 700 nM (group 3). Tumor growth was followed for 39 days (FIG. 4A).
All mice were sacrificed 39 days post-cell inoculation, and the tumors were excised (FIG. 4B) and weighed (FIG. 4C). […]

si-hSMAC-A: siRNA to human SMAC/Diablo; sense 5′AAGCGGUGUUUCUCAGAAUUGtt3′ (SEQ ID NO:20), antisense 5′AACAAUUCUGAGAAACCCGCtt3′ (SEQ ID NO:21) (sense AAGCGGUGUUUCUCAGAAUUGTT; antisense AACAAUUCUGAGAAACCCGCTT; sense: sugars from the 5' end r21 d2, backbone not given here; antisense: sugars from the 5' end r20 d2, backbone not given here)
cell death (HeLa, A549 or H358 cells): 5-10% | cell growth of non-cancerous cell lines (WI38 and HaCat cells): did not affect cell growth | increase in the number of cells in S-phase (A549 cells): about 3 fold | decrease in tumor size at the end point (A549 cells xenograft; 350 nM): 50% | decrease in tumor weight (A549 cells xenograft; 350 nM): 40% | decrease in tumor size at the end point (A549 cells xenograft; 700 nM): 85% | decrease in tumor weight (A549 cells xenograft; 700 nM): 75% | decrease in Ki-67 expression levels in tumors (A549 cells xenograft; IHC staining or q-PCR): ~80% | anti-SMAC/Diablo IHC staining of tumor sections (A549 cells xenograft; mouse, in vivo): very weak
